{"source": "patent US20080306128A1", "about": "“Preparation of Hydrochloride Salts of Tetrazole Derivative” (priority 2004, published 2008)", "assay": "stability of the new salt form on longer heating at increased temperatures", "type": "physicochemical"}
{"smiles": "CCCCC1=NC2(CCCC2)C(=O)N1Cc1ccc(-c2ccccc2-c2nnn[nH]2)cc1.Cl", "note": "[2-butyl-1-[2′-(1H-tetrazol-5-yl)bifenyl-4-yl-methyl]spiro[2-imidazoline-4.1′-cyclopentane]-5-one hydrochloride]", "values": [{"measurement": "stability (decomposition on heating)", "result": "does not decompose"}]}
